{"source": "patent US20180085356A1", "about": "“METHOD OF TREATING DISEASE CHARACTERISED BY PROTEIN AGGREGATE DEPOSITION IN NEURONAL CELLS” (CHRONOS THERAPEUTICS LIMITED, priority 2013, published 2018)", "key": {"[1]": {"test_system": "S. cerevisiae", "experiment": "Chronological lifespan of ageing stationary phase yeast culture (outgrowth viability)", "type": "cell-based, Saccharomyces cerevisiae", "conditions": "40 μM tacrolimus", "experimental": "Analysis of chronological lifespan in yeast involves assessment of the viability of a stationary phase culture over time. Yeast are stored in glycerol stocks at −80° C., inoculated into YPD (Yeast extract-Peptone-Dextrose) and incubated overnight. From this culture, a 1/25 dilution is prepared to produce an ageing culture that is incubated at 30° C. throughout the duration of the experiment. The first 24 hours of yeast growth are assessed in Complete Synthetic Media (CSM) to confirm that the culture has reached stationary phase. After 24 hours, when the culture has completed the exponential growth phase and has entered stationary phase, its viability can then be assessed. Viability is measured by taking a 5 μl sample of the ageing culture and diluting this into a total volume of 150 μlYPD. Growth of this “outgrowth culture” is measured using the Bioscreen-C MBR machine that both incubates the plates and measures optical turbidity every 20 minutes. Comparison of the viability curves of outgrowth cultures taken over several successive days can be used to observe the reduction in viability of the stationary phase culture over time. Specifically, the interval between the time taken for the outgrowth culture to reach OD600=0.6 on day 1, and the time taken to reach OD600=0.6 on a later day (for example day 7) can be used as a measure of the “ageing rate” of the culture. […]"}, "[2]": {"test_system": "C. elegans expressing 35 polyglutamine tract fused to YFP (Q35) in the body wall muscle", "experiment": "C. elegans lifespan assay, polyglutamine Q35 strain", "type": "in vivo, Caenorhabditis elegans", "conditions": "p<0.05 vs. Q35 DMSO", "experimental": "(§1) Tacrolimus was tested in a number of disease models using the nematode worm, Caenorhabditis elegans, in which aggregate-prone proteins associated with neurodegenerative diseases are expressed in certain cell types. The effect of tacrolimus was determined by measuring the lifespan of worms in the presence and absence of tacrolimus, using the following general methodology. All of the worms tested using these assays also contained, in addition to the transgene expressing the disease-related protein, a mutation in the bus-5 gene which confers drug-sensitivity.\n(§2) C. elegans cultures were synchronised by incubating an asynchronous culture in basic sodium hypochlorite solution to kill everything but the bleach-resistant mature eggs. The eggs were added on to agar plates and then allowed to hatch and develop in the presence of the test compound (or vehicle) and bacterial food source. […] From this point on, each ageing population was inspected at regular intervals (e.g. daily) and viability assessed by counting the number of dead worms.\n(§3) The cumulative number of dead worms for each population was used to generate a survival/viability plot to determine chronological lifespan (CLS). Survival was analysed using the Kaplan-Meier log-rank survival analysis method, using the Online Application for Survival (OASIS; see http://sbi.postech.ac.kr/oasis). […]"}, "[3]": {"test_system": "C. elegans expressing YFP alone (Q0) in the body wall muscle", "experiment": "C. elegans lifespan assay, YFP alone (Q0) strain", "type": "in vivo, Caenorhabditis elegans", "conditions": "p<0.05 vs. Q0 DMSO", "experimental": "as §1, §2, §3"}}, "data": [{"compound": "C=CC[C@@H]1/C=C(\\C)C[C@H](C)C[C@H](OC)[C@H]2O[C@@](O)(C(=O)C(=O)N3CCCC[C@H]3C(=O)O[C@H](/C(C)=C/[C@@H]3CC[C@@H](O)[C@H](OC)C3)[C@H](C)[C@@H](O)CC1=O)[C@H](C)C[C@@H]2OC", "note": "[tacrolimus, Tacrolimus]", "values": [{"measurement": "rate of ageing / chronological lifespan of stationary phase yeast culture", "setting": "[1]", "result": "significantly delays the rate of ageing and extends the chronological lifespan"}, {"measurement": "interval between the x-intercepts at OD600=0.6 on days 1 and 9", "setting": "[1]; control without tacrolimus 287 minutes", "result": 63, "unit": "min"}, {"measurement": "lifespan", "setting": "[2]", "result": "significantly increases lifespan"}, {"measurement": "lifespan", "setting": "[3]", "result": "significantly increases lifespan"}]}]}
